Entries after “also recorded” stand apart in the source; their conditions may differ.
Assays:
[1] = tested on: CD4+ human T cells; experiment: Human Autoimmune and Inflammatory Response Gene Array, anti-CD3-stimulated T cells with or without antibiotic; format: cell-based; settings: 120 min anti-CD3; for % decrease by Cef: cefuroxime 50 μg/ml, ±SD, relative to control
Method: T cells were purified from the peripheral bloods of healthy human donors (Blood Bank, Sheba Medical center). The whole blood was incubated (20 min, 22° C.) with RosetteSep™ human T cell enrichment mixture (StemCell Technologies, Vancouver, Canada). The remaining unsedimented cells were then loaded onto lymphocyte separation medium (ICN Biomedicals, Irvine, Calif.), isolated by density centrifugation, and washed with PBS. […] In a second round of purification, CD3^+ T cells were labeled for selection with a magnetically coupled mAb against CD4 (Miltenyi Biotec, Auburn, Calif.).
Human CD4 T cells were isolated as described, and incubated in 24 well plates (Nunc), 4×10^6 cells/ml with plate bound anti-human CD3 (OKT3) at 2 μg/ml. The stimulation was performed in RPMI medium supplemented with 0.1% BSA. […] RNA was extracted from samples and used to prepare probes for gene array in accord with the manufacturer's instructions (SuperArray Bioscience, Frederick, Md.). Adequate labeling of the probes was tested before hybridization. Three healthy donors were tested in stimulation with cefuroxime. The membranes were analyzed online with the Image Data Acquisition and Expression Analysis (SuperArray Bioscience).
The Human Autoimmune and Inflammatory Response Gene Array (SuperArray Bioscience corporation, Frederick, Md., USA) was used for analysis of gene expression by the T cells. This array contains 367 genes including cytokines, chemokines and their receptors, transcription factors and signaling proteins. […] Analysis of the results was performed using the GEArray analysis program. […] To verify the results detected by the gene array study, a panel of six genes was designed and tested by real-time PCR: CCR4, ACVR2, JAK1, STAT4, TLR2 and NFKBIE. The cDNA that was used was prepared from the same RNA used for the gene array experiment.

[2] = tested on: active experimental autoimmune encephalomyelitis (EAE) in Lewis rats; experiment: Actively induced EAE in rats, oral antibiotic treatment; format: in vivo, rat; settings: oral cefuroxime Axetil in drinking water from day 7 post-induction, 50 mg/kg daily, versus the two control groups
[3] = tested on: Adjuvant Arthritis (AA) in Lewis rats; experiment: Adjuvant arthritis (AA) in rats, IP antibiotic treatment; format: in vivo, rat; settings: IP 5 mg (25 mg/kg) once every 2 or 3 days from day 12; versus non-injected control
[4] = tested on: encephalitogenic BP10 line; experiment: Adoptive EAE: BP10 T-cell line stimulated in vitro with test substance, then injected into naive rats; format: in vivo, rat
Method: Antigen-specific T-cell lines were established from lymph node cells that had been stimulated with myelin basic protein (MBP; 10 μg/ml) for 3 days in stimulation medium as described below. Following stimulation, the T-cell blasts were isolated on LYMPHOPREP™ (Nycomed Pharma, Oslo, Norway) and seeded in propagation medium. Propagation medium was identical to stimulation medium without autologous serum, but supplemented with fetal calf serum 10% and T-cell growth factors from the supernatant of Con A stimulated spleen cells 10% (Mor et al. (1990) J Clin Invest, 85, 1594-1598). Animals were injected intra-peritoneally with 107 MBP-stimulated T cells, following 6-8 cycles of in vitro stimulations. It is known that MBP-reactive lines undergo a reduction in pathogenicity after 6 or more in vitro stimulations. In some experiments the BP10 line was stimulated with phorbol myristate acetate (PMA; 50 ng/ml) and ionomycin (500 ng/ml) for 3 days in stimulation medium, without antigen-presenting cells.
Active EAE was induced by subcutaneous injection of 25 μg guinea-pig MBP (GpMBP) in complete Freund's adjuvant (CFA). […] Adoptive EAE was transferred by intra-peritoneal injection of guinea-pig MBP-activated cells of the BP10 line as described in Mor et al. (1993) J Clin Invest, 92, 2199-2206. […] Clinical scoring was: +1, paralysis of tail; +1.5, paresis of posterior paws and ataxia; +2, paraplegia; +3, paralysis extending to thoracic spine; +4, a moribund state.
Treatment with cefuroxime in vivo could affect many different host agents involved in EAE or AA as well as influencing the rats' bacterial flora. To test whether the antibiotic might directly modify the behavior of effector T cells, an encephalitogenic T-cell line was stimulated in the presence or absence of cefuroxime in vitro. The weakly encephalitogenic BP10 line was used, and was stimulated for 3 days with MBP in the presence or absence of cefuroxime (50 μg/ml). The activated T cells were then washed to remove the antibiotic, the T cells were injected intra-peritoneally into naïve recipient rats (10^7 per rat), and EAE was scored. The BP10 line at later stimulations was used, when its pathogenic potential is reduced, allowing to detect both suppression and enhancement of disease. […] To rule out antigen presenting cells (APC) as the target of the beta-lactam antibiotic, the encephalitogenic BP10 line was stimulated without APC using PMA (50 ng/ml) and Ionomycin (500 ng/ml) in the presence or absence of cefuroxime.
Additional beta-lactam antibiotics were tested for their effect on the adoptive transfer of EAE.
A control group was injected with the untreated line.

For `CO/N=C(\C(=O)N[C@@H]1C(=O)N2C(C(=O)O)=C(COC(N)=O)CS[C@H]12)c1ccco1` [cefuroxime], the “number of genes down-regulated” value ([1]; array of 367 genes, 50 μg/ml) was “Fifty-seven”, the “% decrease by Cef” value ([1]; gene ACTB) was 49 ± 11% and the “% decrease by Cef” value ([1]; gene ACVR1) was 42 ± 0.7%. The “% decrease by Cef” value ([1]; gene ACVR2) was 60 ± 14.8%, the “% decrease by Cef” value ([1]; gene CCL5) was 21 ± 5.6% and the “% decrease by Cef” value ([1]; gene CCL11) was 18 ± 6.6%. The “% decrease by Cef” value ([1]; gene CCR4) was 39 ± 2%, the “% decrease by Cef” value ([1]; gene CCR6) was 53 ± 5.6% and the “% decrease by Cef” value ([1]; gene CCR7) was 38 ± 8.1%. For the same compound, the “% decrease by Cef” value ([1]; gene CD28) was 51 ± 2.1%, the “% decrease by Cef” value ([1]; gene CD40LG) was 33 ± 7.1% and the “% decrease by Cef” value ([1]; gene CREB1) was 19 ± 4.9%. For the same compound, the “% decrease by Cef” value ([1]; gene CREBBP) was 40 ± 9.9%, the “% decrease by Cef” value ([1]; gene CXCL10) was 39 ± 3% and the “% decrease by Cef” value ([1]; gene EGR3) was 38 ± 2.8%. For the same compound, the “% decrease by Cef” value ([1]; gene GFI1) was 45 ± 14%, the “% decrease by Cef” value ([1]; gene HRAS) was 30 ± 9.8% and the “% decrease by Cef” value ([1]; gene IL1B) was 54 ± 7.0%. For the same compound, the “% decrease by Cef” value ([1]; gene IL2RB) was 50 ± 9.9%, the “% decrease by Cef” value ([1]; gene IL2RG) was 57 ± 9.8% and the “% decrease by Cef” value ([1]; gene IL9R) was 27.5 ± 3%. The “% decrease by Cef” value ([1]; gene IL16) was 50 ± 7.8%, the “% decrease by Cef” value ([1]; gene IRAK1) was 44 ± 2.1% and the “% decrease by Cef” value ([1]; gene JAK1) was 53 ± 13.4%. The “% decrease by Cef” value ([1]; gene JUN) was 49 ± 2.2%, the “% decrease by Cef” value ([1]; gene LTA) was 17 ± 10% and the “% decrease by Cef” value ([1]; gene MAP2K4) was 52 ± 14.1%. The “% decrease by Cef” value ([1]; gene MAP3K1) was 53 ± 12%, the “% decrease by Cef” value ([1]; gene MAP3K2) was 36 ± 12% and the “% decrease by Cef” value ([1]; gene MAP3K7) was 46 ± 9.9%. The “% decrease by Cef” value ([1]; gene MAPK9) was 42 ± 10.9%, the “% decrease by Cef” value ([1]; gene NFKB1) was 43 ± 3.5% and the “% decrease by Cef” value ([1]; gene NFKB2) was 53 ± 10.6%. For the same compound, the “% decrease by Cef” value ([1]; gene NFKBIE) was 63 ± 11%, the “% decrease by Cef” value ([1]; gene NFKBIL1) was 54 ± 12.5% and the “% decrease by Cef” value ([1]; gene PAK1) was 40 ± 2.4%. For the same compound, the “% decrease by Cef” value ([1]; gene PIN1) was 45 ± 12.1%, the “% decrease by Cef” value ([1]; gene RANBP5) was 33 ± 3.5% and the “% decrease by Cef” value ([1]; gene REL) was 45 ± 1.9%. The “% decrease by Cef” value ([1]; gene RFX5) was 36 ± 4.2%, the “% decrease by Cef” value ([1]; gene RFXAP) was 27 ± 12% and the “% decrease by Cef” value ([1]; gene SDF2) was 28 ± 12%. For the same compound, the “% decrease by Cef” value ([1]; gene SELL) was 46 ± 7.0%, the “% decrease by Cef” value ([1]; gene SMAD4) was 47 ± 7.0% and the “% decrease by Cef” value ([1]; gene SMAD7) was 47 ± 4.2%. For the same compound, the “% decrease by Cef” value ([1]; gene SP3) was 39 ± 9.9%, the “% decrease by Cef” value ([1]; gene SRF) was 38 ± 1.9% and the “% decrease by Cef” value ([1]; gene STAT1) was 32 ± 11%. The “% decrease by Cef” value ([1]; gene STAT4) was 47 ± 9.3%, the “% decrease by Cef” value ([1]; gene STAT6) was 47 ± 7.9% and the “% decrease by Cef” value ([1]; gene TGFBR3) was 44 ± 3.5%. The “% decrease by Cef” value ([1]; gene TGIF) was 43 ± 3.5%, the “% decrease by Cef” value ([1]; gene TLR2) was 52 ± 14% and the “% decrease by Cef” value ([1]; gene TNFRSF11) was 43 ± 2%. The “% decrease by Cef” value ([1]; gene TNFα) was 29 ± 8.5%, the “% decrease by Cef” value ([1]; gene TRAF5) was 43 ± 2.2% and the “% decrease by Cef” value ([1]; gene TRAF6) was 43 ± 3.5%. For the same compound, the “% decrease by Cef” value ([1]; gene YY1) was 23 ± 9.1%, the “severity of active EAE” value [2] was “significantly more severe EAE; also recorded: increases the severity of actively induced EAE” and the arthritis scores [3] was “significantly more severe arthritis scores; also recorded: Exacerbation of adjuvant-induced arthritis”. For the same compound, the “severity of adoptive EAE in recipient rats” value (“severity of adoptive EAE” below) ([4]; BP10 line stimulated 3 days with MBP in presence of 50 μg/ml antibiotic, 10^7 cells per rat) was “markedly enhanced the manifestations of EAE”, the “severity of adoptive EAE” value ([4]; BP10 line stimulated 3 days with MBP in presence of 50 μg/ml antibiotic, 10^7 cells per rat, listed as Cefuroxime) was “enhances the pathogenicity of the BP10 line” and the “severity of adoptive EAE” value ([4]; BP10 line stimulated without APC using PMA (50 ng/ml) and Ionomycin (500 ng/ml)) was “significantly more severe”. For the same compound, the “severity of adoptive EAE” value ([4]; dose-response, BP10 line stimulated with 5 μg/ml) was “ineffective” and the “severity of adoptive EAE” value ([4]; dose-response, BP10 line stimulated with 25 μg/ml) was “enhancing effect similar to that of 50 μg/ml”.

— patent US9474744B2, “Beta-lactam compounds for treating diabetes” (STEM CELL MEDICINE LTD., priority 2011, dated 2016)
